{"source": "patent US11413250B2", "about": "“Shape changing drug delivery devices and methods” (Incept, LLC, priority 2015, dated 2022)", "settings": "in vivo test of Example 17", "description": "The tolerability, pharmacokinetics, and pharmacodynamics of the formulations from examples 1 and 2 were evaluated in Dutch belted rabbits through 6 months. 112 eyes of naïve Dutch belted rabbits ([…]) were bilaterally dosed with either a necked fiber or a coiled fiber and were sacrificed at 1, 3 and 6 months to test for biocompatibility or pharmacokinetics."}
{"smiles": "CNC(=O)c1ccccc1Sc1ccc2c(/C=C/c3ccccn3)n[nH]c2c1", "note": "[Axitinib]", "values": [{"measurement": "Toxicity of the delivered amounts", "result": "not toxic"}]}
